Columns and labels:
[1] = Solid form characterisation of 5MeODMT benzoate lots (XRPD, DSC, TGA, 1H NMR)
[2] = system: Slugs (Arion lusitanicus); type: in vivo; details: Example 8; for Total MP (% body weight): Concentration (w/v) 10%
Source text: The Slug Mucosal Irritation (SMI) assay was initially developed at the Laboratory of Pharmaceutical Technology (UGent) to predict the mucosal irritation potency of pharmaceutical formulations and ingredients. The test utilizes the terrestrial slug Arion lusitanicus. The body wall of the slugs is a mucosal surface composed of different layers.
The outer single-layered columnar epithelium that contains cells with cilia, cells with micro-villi and mucus secreting cells covers the subepithelial connective tissue. Slugs that are placed on an irritating substance will produce mucus. Additionally tissue damage can be induced which results in the release of proteins and enzymes from the mucosal surface. […] A classification prediction model that distinguishes between irritation (mucus production) and tissue damage (release of proteins and enzymes) has been developed. […] A 5% shampoo dilution or artificial tears were instilled in the eye and the discomfort was scored by the participants on a 5 point scale during several time points up to 30 min after instillation. The same shampoos were tested in the SMI assay using the Stinging, Itching and Burning (SIB) protocol.
The purpose of this assay was to assess the stinging, itching or burning potential of the test item(s) defined below. Using the objective values obtained for the mucus production the stinging, itching or burning potential of the test item(s) can be estimated by means of the prediction model that is composed of four categories (no, mild, moderate and severe).
Test System: Slugs (Arion lusitanicus); 3 slugs per treatment group. The parental slugs of Arion lusitanicus collected in local gardens along Gent and Aalter (Belgium) are bred in the laboratory in an acclimatized room (18-20° C.). The slugs are housed in plastic containers and fed with lettuce, cucumber, carrots and commercial dog food.
Test Design: A single study was performed.
Slugs weighing between 3 and 6 g were isolated from the cultures two days before the start of an experiment. The body wall was inspected carefully for evidence of macroscopic injuries. […] The slugs were placed in a plastic box lined with paper towel moistened with PBS and were kept at 18-20° C. Daily the body wall of the slugs was wetted with 300 μl PBS using a micropipette.
An overview of this can be seen in FIG. 4.
The mucus production was expressed as % of the body weight.
Based on the endpoint of the SMI assay the stinging, itching or burning potency of the test item(s) was estimated using a classification prediction model.
The evaluation of the test results was based upon the total amount of mucus production during 3 repeated contact periods with the test item.
For each slug, the mucus production was expressed in % of the body weight by dividing the weight of the mucus produced during each contact period by the body weight of the slug before the start of that contact period. The total mucus was calculated for each slug and then the mean per treatment group was calculated. The classification prediction model shown in Table 1 was used to classify the compounds.

ovine nasal epithelium = assay: Permeation through ovine nasal epithelium; type: in vitro ADME; details: for Cumulative amount (μg/cm^2): […] dosing solution in water, mean, n=5; for Permeation compared with the hydrochloride salt: across ovine nasal epithelium
Source text: The use of ovine nasal epithelium to study nasal drug absorption is a technique which is well known to the person skilled in the art.

[3] = Dynamic Vapour Sorption (DVS); type: physicochemical
Method: A modified DVS isotherm of lot 20/45/006-FP (the same crystalline version) was undertaken to examine material behaviour from 60% RH and above. […] This is to obtain in-depth profiling of the material towards humidity at these elevated levels.
Temperature and humidity are important factors in the processing and storage of pharmaceuticals. DVS provides a versatile and sensitive technique for evaluating the stability of pharmaceutical formulations.
The solution was clarified into a 500 ml round bottom flask, the round bottom flask was rotated in an acetone/dry ice bath to freeze the solution in a thin layer around the flask. The ice was sublimed in vacuo at ambient temperature affording a fluffy white solid. The solid was removed from the round bottom flask and transferred to the DVS instrument. During this transfer, the solid collapsed to a sticky gum.
The sample was examined by DVS from 40% RH and cycled between 0% RH and 90% RH twice.
XRPD was collected on a portion of the sample post-lyophoilisation and post-DVS examination.

[4] = Controlled cooling crystallisation: solubility in minimal solvent at 50 °C; type: physicochemical; details: 50° C.
Method: (detailed in the Table below). The solutions were clarified through a 0.45 μm Teflon syringe filter into pre-heated crystallisation tubes and cooled from 50° C. to −10° C. over 60 hours (1° C. Hr-1 cooling rate) and held at −10° C. for 50 hours (no agitation).
Solutions were clarified into crystallisation tubes at 50° C. and were cooled to −10° C. at a rate of 10° C.·hr-1, then equilibrated at −10° C. for 12 hours, then agitated at −10° C. at 400 rpm for 30 minutes which afforded a mobile suspension for all samples except Sample I which remained a solution. Further equilibration with agitation at −10° C. at 400 rpm for 3 hours afforded a thin suspension. All samples were isolated via isolute cartridge and air dried for 5 minutes before characterisation.

[5] = Stability of solid forms (Patterns A, B, C) open to atmosphere and in vacuo at 50 °C, by XRPD; type: physicochemical
Method: XRPD was performed regularly. DSC and 1H NMR spectroscopy were performed on samples where significant differences to the diffraction patterns were observed.

[6] = Generation of amorphous 5MeODMT benzoate and conversion on standing (XRPD, DSC); type: physicochemical; details: on standing / all conditions studied
Method: The flask was transferred to a vacuum and equilibrated to ambient temperature affording a fluffy white solid, 21-01-051 C.
The solid transformed into gum over ca. 1 hour. The sample was analysed immediately and after 20 hours held in a sealed container.

COc1ccc2[nH]cc(CCN(C)C)c2c1.O=C(O)c1ccccc1
Crystalline character ([1]; predominantly Pattern E lots): Pattern E

COc1ccc2[nH]cc(CCN(C)C)c2c1.Cl [5MeODMT HCl, 5MeODMT hydrochloride]
Irritation score on SMI testing [2]: moderate
Total MP (% body weight) [2]: 10.27 % body weight
Cumulative amount (μg/cm^2) (ovine nasal epithelium; Time 0.0 min): 0.00 μg/cm^2
Cumulative amount (μg/cm^2) (ovine nasal epithelium; Time 10.0 min): 0.33 μg/cm^2
Cumulative amount (μg/cm^2) (ovine nasal epithelium; Time 20.0 min): 3.30 μg/cm^2
Cumulative amount (μg/cm^2) (ovine nasal epithelium; Time 30.0 min): 8.26 μg/cm^2
Cumulative amount (μg/cm^2) (ovine nasal epithelium; Time 40.0 min): 13.33 μg/cm^2
Cumulative amount (μg/cm^2) (ovine nasal epithelium; Time 50.0 min): 18.77 μg/cm^2
Cumulative amount (μg/cm^2) (ovine nasal epithelium; Time 60.0 min): 23.43 μg/cm^2
Cumulative amount (μg/cm^2) (ovine nasal epithelium; Time 75.0 min): 29.52 μg/cm^2
State of material upon completion of the DVS cycle ([3]; lot 20/20/126-FP): completed deliquesced
Moisture uptake ([3]; lot 20/20/126-FP, 0-70% RH): less than 0.3 % w/w
Moisture uptake ([3]; lot 20/20/126-FP, 70-80% RH, first sorption cycle): Approximately 23 % w/w
Retained mass above the minimum mass recorded at 0% RH ([3]; lot 20/20/126-FP, subsequent cycles): 6-9 % w/w
Further moisture uptake ([3]; lot 20/20/126-FP, up to and when held at 90% RH): 20 % w/w
Moisture increase ([3]; lot 20/45/006-FP, 70-75% RH): ca. 0.46 % w/w
Moisture uptake ([3]; lot 20/45/006-FP, 75-80% RH): ca. 7%
Moisture uptake ([3]; lot 20/45/006-FP, 80-85% RH): ca. 40%
State of material post DVS analysis ([3]; lot 20/45/006-FP, likely above 80% RH): Complete deliquescence

COc1ccc2[nH]cc(CCN(C)C)c2c1.O=C(O)c1ccccc1 [5MeODMT benzoate 21-01-064 A]
Crystalline character ([1]; predominantly Pattern C lots): Pattern C

COc1ccc2[nH]cc(CCN(C)C)c2c1.O=C(O)c1ccccc1 [5MeODMT benzoate 21-01-064 B]
Crystalline character ([1]; predominantly Pattern C lots): Pattern C

COc1ccc2[nH]cc(CCN(C)C)c2c1.O=C(O)c1ccccc1 [5MeODMT benzoate 21-01-064 C]
Crystalline character ([1]; predominantly Pattern E lots): Pattern E

COc1ccc2[nH]cc(CCN(C)C)c2c1.O=C(O)c1ccccc1 [5MeODMT benzoate 21-01-064 D]
Crystalline character ([1]; predominantly Pattern E lots): Pattern E

COc1ccc2[nH]cc(CCN(C)C)c2c1.O=C(O)c1ccccc1 [5MeODMT benzoate 21-01-064 E (air dried 4 hours)]
Crystalline character ([1]; predominantly Pattern D lots): Pattern D

COc1ccc2[nH]cc(CCN(C)C)c2c1.O=C(O)c1ccccc1 [5MeODMT benzoate 21-01-064 E]
Crystalline character ([1]; predominantly Pattern D lots): Pattern D

COc1ccc2[nH]cc(CCN(C)C)c2c1.O=C(O)c1ccccc1 [5MeODMT benzoate 21-01-064 F]
Crystalline character ([1]; predominantly Pattern D lots): Pattern D

COc1ccc2[nH]cc(CCN(C)C)c2c1.O=C(O)c1ccccc1 [5MeODMT benzoate]
Irritation score on SMI testing [2]: mild
Total MP (% body weight) [2]: 7.38 % body weight
Cumulative amount (μg/cm^2) (ovine nasal epithelium; Time 0.0 min): 0.00 μg/cm^2
Cumulative amount (μg/cm^2) (ovine nasal epithelium; Time 10.0 min): 0.20 μg/cm^2
Cumulative amount (μg/cm^2) (ovine nasal epithelium; Time 20.0 min): 3.46 μg/cm^2
Cumulative amount (μg/cm^2) (ovine nasal epithelium; Time 30.0 min): 9.30 μg/cm^2
Cumulative amount (μg/cm^2) (ovine nasal epithelium; Time 40.0 min): 15.46 μg/cm^2
Cumulative amount (μg/cm^2) (ovine nasal epithelium; Time 50.0 min): 21.51 μg/cm^2
Cumulative amount (μg/cm^2) (ovine nasal epithelium; Time 60.0 min): 27.30 μg/cm^2
Cumulative amount (μg/cm^2) (ovine nasal epithelium; Time 75.0 min): 33.34 μg/cm^2
Cumulative amount (μg/cm^2) (ovine nasal epithelium; Time 90.0 min): 39.77 μg/cm^2
Permeation compared with the hydrochloride salt (ovine nasal epithelium; listed as 5MeODMT benzoate salt): higher permeation
Permeation compared with the hydrochloride salt (ovine nasal epithelium; listed as benzoate salt): higher permeation across the epithelium
Permeation compared with the hydrochloride salt (ovine nasal epithelium; listed as benzoate salt of 5MeODMT): higher permeation
Form/version modification on exposure to variable humidity [3]: no evidence of form/version modification
Stability by DVS profile compared with the hydrochloride salt [3]: significantly higher
Maximum water uptake/loss ([3]; from 0 to 90% humidity): ~0.20%
Solubility (mg · mL^1) ([4]; 2-MeTHF): 31.25 mg · mL^1
Solubility (mg · mL^1) ([4]; 3-methyl-1-butanol): 31.25 mg · mL^1
Solubility (mg · mL^1) ([4]; Acetone): 62.5 mg · mL^1
Solubility (mg · mL^1) ([4]; Chlorobenzene): 12.5 mg · mL^1
Solubility (mg · mL^1) ([4]; IPA): 42 mg · mL^1
Solubility (mg · mL^1) ([4]; MEK): 62.5 mg · mL^1
Solubility (mg · mL^1) ([4]; MeCN): 50 mg · mL^1
Solubility (mg · mL^1) ([4]; MeOH): 250 mg · mL^1
Solubility (mg · mL^1) ([4]; MeOH:TBME (1:1)): 125 mg · mL^1
Solubility (mg · mL^1) ([4]; Nitromethane): 125 mg · mL^1
Solubility (mg · mL^1) ([4]; THF): 83 mg · mL^1
Solubility (mg · mL^1) ([4]; iPrOAc): 12.5 mg · mL^1

COc1ccc2[nH]cc(CCN(C)C)c2c1.O=C(O)c1ccccc1 [21-01-071 C1, Pattern C]
XRPD pattern throughout drying, Day 2 ([5]; In vacuo at 50° C., Day 2): B + A
XRPD pattern throughout drying, Day 3 ([5]; In vacuo at 50° C., Day 3): A + B
XRPD pattern throughout drying, Day 1 ([5]; Open to atmosphere at 20 ± 2° C., Day 1): C + B
XRPD pattern throughout drying, Day 4 ([5]; Open to atmosphere at 20 ± 2° C., Day 4): C + B
XRPD pattern throughout drying, Day 6 ([5]; Open to atmosphere at 20 ± 2° C., Day 6): C + B
XRPD pattern throughout drying, Day 8 ([5]; Open to atmosphere at 20 ± 2° C., Day 8): C + B
XRPD pattern throughout drying, Day 12 ([5]; Open to atmosphere at 20 ± 2° C., Day 12): C + B

COc1ccc2[nH]cc(CCN(C)C)c2c1.O=C(O)c1ccccc1 [Amorphous 5MeODMT benzoate]
Solid form after DVS examination (XRPD) ([3]; amorphous input, after DVS at 90% RH): concordant with Pattern A
Initial weight reduction ([3]; amorphous lot 21-01-078, first desorption cycle): ca. 1.4%
Weight increase ([3]; amorphous lot 21-01-078, second sorption, between 50% RH and 90% RH): 0.2%
Weight loss ([3]; amorphous, DVS examination): ca. 2%
Stability of the amorphous form [6]: unstable and undergoes transformation to Pattern A form under all conditions studied
Stability of the amorphous form ([6]; listed as amorphous 5MeODMT benzoate): will convert to Pattern A form material on standing

COc1ccc2[nH]cc(CCN(C)C)c2c1.O=C(O)c1ccccc1 [Pattern B form]
Solid form stability ([5]; open to atmosphere at ca. 20° C., up to 12 days): stable
